This note sets out measurements from ChEMBL document CHEMBL5226387, “A Drimane Meroterpenoid Borate as a Synchronous Ca+ Oscillation Inhibitor from the Coral-Associated Fungus Alternaria sp. ZH-15” (J Nat Prod, 2023).

pIC50: −log10 of the molar value.

Holding throughout (type): functional, cell-based
A short description of experiment [1]: Neuroprotective activity in C57BL/6J mouse primary neocortical neurons assessed as inhibition of spontaneous Ca2+ oscillation frequency measured for 15 mins by Fluo-4 dye based fluorescence analysis. Conditions: Primary neocortical neuron, 0.25 h.
Experiment [2] in a line: Neuroprotective activity in C57BL/6J mouse primary neocortical neurons assessed as inhibition of spontaneous Ca2+ oscillation amplitude measured for 15 mins by Fluo-4 dye based fluorescence analysis. Conditions: Primary neocortical neuron, 0.25 h.
Experiment [3] is described as follows: Neuroprotective activity in C57BL/6J mouse primary neocortical neurons assessed as inhibition of 4-AP-induced spontaneous Ca2+ oscillation frequency treated with compound 15 mins prior to 4-AP challenge and measured after 10 mins by Fluo-4 dye based fluorescence analysis. The conditions noted are these: Primary neocortical neuron.
Experiment [4] can be described thus: Neuroprotective activity in C57BL/6J mouse primary neocortical neurons assessed as inhibition of 4-AP-induced spontaneous Ca2+ oscillation amplitude treated with compound 15 mins prior to 4-AP challenge and measured after 10 mins by Fluo-4 dye based fluorescence analysis. The conditions noted are these: Primary neocortical neuron.

Consider `COc1cc(-c2cc3c(c(=O)o2)C[C@@]24OB(O)O[C@]5(CC[C@@]2(C)O3)C(C)(C)C=CC(=O)[C@]45C)cc(OC)c1OC`, for which the pIC50 (commonly −log10 of the IC50, conventionally taken in molar units) in experiment [1] is 4.82; in experiment [2], 4.80; in experiment [3], 4.92; in experiment [4] it was 4.47.
For `COc1cc(-c2cc3c(c(=O)o2)C[C@]2(O)[C@@]4(C)C(=O)C=CC(C)(C)[C@]4(O)CC[C@@]2(C)O3)cc(OC)c1OC` [TERRITREM B] the same measures were 5.07, 5.27, 4.85 and 4.57.
